In the assay the test system is plasma LH levels. Briefly: Plasma LH level during and after i.v. infusion (Figures 1 and 2). The assay is classed as in vivo. The following applies: mature castrate male rats, plot only, compound characterised in words. The source says:
Figures 1 and 2 illustrate the effect on plasma LH levels in mature castrate male rats during and after i.v. infusion of compounds 20 and 24, respectively.

Experimental findings from patent EP0328089A2, “Reduced size LHRH analogs” (ABBOTT LABORATORIES, priority 1988, dated 1989) are described below.

Where a SMILES comes first, the peptide text is derived from it. [ ]: non-standard residue; d: D form. The star is where a group is joined. Propanoyl(3-(1-naphthyl)) = O=C(CCc1cccc2ccccc12)*; Propanoyl(3-indol-3-yl) = O=C(CCc1c[nH]c2ccccc12)*; d2Nal = N[C@H](Cc1ccc2ccccc2c1)C(=O)O

For `CCNC(=O)[C@@H]1CCCN1C(=O)[C@H](CCCNC(=N)N)NC(=O)[C@H](CC(C)C)NC(=O)[C@@H](Cc1ccc2ccccc2c1)NC(=O)[C@H](Cc1ccc(O)cc1)NC(=O)[C@H](CO)NC(=O)CCc1cccc2ccccc12` [compound 20] ({Propanoyl(3-(1-naphthyl))}-SY[d2Nal]LRP-NHEt), the “effect on plasma LH levels” value is reported as “LHRH antagonist”.

With `CCNC(=O)[C@@H]1CCCN1C(=O)[C@H](CCCNC(=N)N)NC(=O)[C@H](CC(C)C)NC(=O)[C@@H](Cc1c[nH]c2ccccc12)NC(=O)[C@H](Cc1ccc(O)cc1)NC(=O)[C@H](CO)NC(=O)CCc1c[nH]c2ccccc12` [compound 24, (4-9)[N-(3-(3-Indole)propionyl)-Ser⁴-D-Trp⁶-Pro⁹-NHEt] LHRH] ({Propanoyl(3-indol-3-yl)}-SY[dW]LRP-NHEt), the “effect on plasma LH levels” value is “LHRH agonist”.
